Series [1] relates to MDCK cells. Kind of series: In vitro permeability in MDCK cells. The series is classed as in vitro ADME.
Series [2] is described as follows: Oral bioavailability and hepatic clearance with colloid-forming, precipitation-resistant solutions. The series is classed as in vivo.
A short description of series [3]: Glass transition and recrystallization temperature of amorphous solids. The series is classed as physicochemical. The protocol:
Thus, while crystals of Compound A are quite stable, there is a significant barrier to transforming to a crystalline state from an amorphous form. Indeed, a ramped temperature increase of a partially-crystalline sample does eventually lead to a recrystallization event, but not until a temperature of 200-220° C. is achieved. […] As discussed below, this robust resistance to crystallization is preserved even in the presence of water.
The amorphous form of pure Compound A is robust with a high Tg and even higher recrystallization temperature. The glass transition temperature does decrease under the plasticizing conditions of high humidity. However, the value is still well above the commonly applied 40-50° C. difference between Tg and any temperature the clinical presentation will encounter.

Series [4] in a line: Membrane flux experiment (donor/receiver compartments, SIF bile salts).
Protocol: A membrane flux experiment was conducted in which a fixed amount of compound was introduced into the donor compartment at various concentrations of the SIF bile salts, and appearance of drug was monitored on the receiver side.
Series [5] can be described thus: Rat pharmacokinetic studies with solutions and spray-dried dispersions. The note with it: rats; solutions containing solubilizers and precipitation inhibitors.

Molecules are shown by their SMILES.

For `N#Cc1ccc(O[C@H]2CC[C@H](NC(=O)c3ccc(N4CCC(CN5CCN(c6cc7c(cc6F)C(=O)N(C6CCC(=O)NC6=O)C7=O)CC5)CC4)nn3)CC2)cc1Cl` (stereo partly shown) [Compound A, N-[(1r,4r)-4-(3-chloro-4-cyanophenoxy)cyclohexyl]-6-[4-({4-[2-(2,6-dioxopiperidin-3-yl)-6-fluoro-1,3-dioxo-2,3-dihydro-1H-isoindol-5-yl]piperazin-1-yl}methyl)piperidin-1-yl]pyridazine-3-carboxamide], the “in vitro permeability in MDCK cells” value in series [1] is listed as “low”. Also, the oral bioavailability entry in series [2] (colloid-forming, precipitation-resistant solutions administered) is reported as “modest”. The hepatic clearance result in series [2] (in vivo) was “low”. In addition, the “glass transition temperature (Tg)” value in series [3] turned out to be 146 °C. In addition, the “temperature of recrystallization event” value in series [3] (ramped temperature increase of a partially-crystalline sample) was 200-220 °C. For the same compound, the “Flux (μg-min^−1-cm^−2)” value in series [4] (SIF 0 mg/mL) is listed as 0.02 μg-min^−1-cm^−2; in series [4] (SIF 5 mg/mL) it was 0.09 μg-min^−1-cm^−2; in series [4] (SIF 10 mg/mL) it was 0.14 μg-min^−1-cm^−2; in series [4] (SIF 20 mg/mL), 0.20 μg-min^−1-cm^−2. For the same compound, in series [5], the exposure versus dose result is recorded as “Dose-linear exposure escalation”.

The values are drawn from patent publication US12043612B2, “Methods of manufacturing a bifunctional compound, ultrapure forms of the bifunctional compound, and dosage forms comprising the same” (Arvinas Operations, Inc., priority 2020, dated 2024).
